According to patent publication US4444776A, “Dipyrido (4,3-B) (3,4-F) indoles, process for obtaining them, therapeutical use and pharmaceutical compositions” (priority 1977, dated 1984):
Where two headings read alike, the source gives them in different places.

Experiments:
L 1210 leukemia = assay: Test 1: antitumoral properties on L 1210 leukemia (Table I); assay type: in vivo, mouse
Experimental: The lower animal antitumoral properties of the compounds according to the invention have been determined by their curative action on inoculated test L-1210 leukemia. [ZUBROD C. G., Proc. Nat. Acad. Sci. 1972, 69, 1042-1047 and SCHEPARTZ SA. SCREENING, 1971, CANCER Chemother. Rep. Part 3 vol.2 p.3].
This leukemia is maintained in ascitic form by passage (i.p. route) on CBDl (C57 B16×DBA/2)F1 mice. The preparation to be tested are injected by the intraperitoneal route at least one day after the inoculation of the cells (one injection only). The results are expressed in increased life span per cent (ILS %) according to KESSEL et al. Cancer Res. 1971, 31, 1883-1887) or in percentage of the number of cells killed by the product (the survival of the animals is proportional to the number of cells injected).
The following tests were made in groups of 10 mice, unless stipulated to the contrary.
Test 1: Study of the antitumoral properties of the compounds of the invention on L 1210 leukemia
The lower animal antitumoral properties of the compounds according to the invention were determined by their curative action on test inoculated L 1210 leukemia.
This leukemia was maintained on CBD 1 (C 57 B 16×DBA/2) F1 mice. The compounds to be tested were injected by the IP route one or more days after the inoculation of the cells (single injection). The results obtained, shown in table I hereinafter, are expressed in percentage of increase of life span (ILS %) and in percentage of the number of cells killed by the compound to be tested, the survival of the animals being proportional to the number of cells injected.
The percentage of the like span ILS % (Cancer. Res. 1971, 31, 1883-1887) is the following ratio: [formula] S^t =survival of the treated animals S^c =survival of the control animals

[1] = test system: Moloney virus / viro-induced Moloney sarcoma; assay: Test 3: development of the viro-induced Moloney sarcoma; assay type: in vivo, new-born mice; conditions: 1 μg/mouse (0.5 mg/kg)
Excerpt: The study of the development of the MOLONEY viro-induced sarcoma (Nat. Cancer. Inst. Monograph 22, 139-142, 1966) has also made it possible to determine that the compounds according to the invention are antiviral and antitumoral agents in lower animals.
Test 3: Study of the development of the viro-induced Moloney sarcoma
The injection of Moloney virus [C. Jasmin et al. J. Nat. Cander Inst. 1974 53 469-474] by the intramuscular i.m. route into new-born mice led after 10 days to the formation of a sarcoma. The appearance of the tumour was proportional to the dose of virus injected. The viral inoculum was constituted by a tumor homogenate diluted to 1/250, this corresponding to 10 TID 50, i.e. to the dose of virus inducing the appearance of a tumour in 50% of the animals infected. At this dose, 80 to 100% of the animals developed a tumour, and 100% of the survivors became leukemic. The experiment thus consisted in noting the number of mice presenting tumours, the regression, or not, of these tumours and finally in sacrificing the surviving animals after 2 months and in noting the presence or absence of splenomegaly (evidence of a leukemia). The virus was inoculated into new-born mice of 3 to 5 days by the IM route, and the mice received the following day (J+1) or five hours after injection (JO+5 hours) the product to be tested by the IP route.

[2] = Test 4: toxicity on adult F1 mice, IP; conditions: in vivo
Excerpt: Test 4: Investigation of the toxicity
The toxic dose has been sought, on adult ([…]×DBA/2) Fl mice and on new-born mice, of the compounds of the invention by injection by the IP route. The results obtained are given hereinafter:
1- On adult F1 mice (C 57 BL 6×DBA/2)F1 (IP route)

[3] = test system: tumoral strain derived from the murine leukemia due to the C. FRIEND virus; assay: Test 7: antitumoral activity in vitro on Friend leukemia tumoral strain; assay type: cell-based; conditions: HUM = 1
Experimental: Test 7: Study of the antitumoral activity in vitro
This activity was measured on a tumoral strain derived from the murine leukemia due to the C. FRIEND virus.
The tumoral cells multiply in suspension in a "RPMI 1640" medium (Catalogue of GIBCO Bio-cult. Ltd. Washington Road, Sandyford Industrial Estate, PAISLEY PA 3 4EP, Renfrewshire, Scotland) supplemented with 20% of embryonary calf serum, penicillin and streptomycine. The duplication time of these cells is 11 hours. The growth fraction is equal to 1 or very close to 1 (all the cells are in the cycle). The cultures are sub-culturedat time t=0 at the concentration of 2.10^5 cells per ml in Falcon dishes containing 4 ml of medium. After twenty four hours, the product to be tested was added, i.e. at a moment when the cultures are in exponential phase of growth. Twenty four hours after the addition of the product, the cells are counted and the percentage of living cells determined by an exclusion test using "trypan" blue.

[4] = Test 8: acute toxicity in vivo, C3H mice; conditions: mouse, read-out: LD 500
Experimental: (§1) Test 8: Acute toxicity in vivo
(§2) The products to be tested were injected by the IP route into groups of 10 mice at various dilutions. Each day, the number of dead animals is noted. If the doses are well chosen, a 100% lethal dose and a 50% lethal dose have been able to be defined for each product. This study is limited to two months. Two isogenic mouse strains were systematically used: C3H/He and ICFW.

C3H/He mice = assay: Test 8: acute toxicity in vivo, C3H mice; conditions: mouse, ip
Experimental: as §1, §2

[5] = Test 8: acute toxicity in vivo, ICFW mice; conditions: mouse, read-out: LD 500
Experimental: as §1, §2

ICFW mice = assay: Test 8: acute toxicity in vivo, ICFW mice; conditions: mouse, ip
Experimental: as §1, §2

[6] = experiment no 1, 10^3 cells, 50 mg/kg, J+2
[7] = experiment no 1, 10^4 cells, 50 mg/kg, J+2
[8] = experiment no 1, 10^5 cells, 50 mg/kg, J+2
[9] = experiment no 1, 10^6 cells, 50 mg/kg, J+2
[10] = experiment no 2, 10^4 cells, 50 mg/kg, J+1
[11] = experiment no 2, 10^5 cells, 50 mg/kg, J+1
[12] = experiment no 2, 10^6 cells, 50 mg/kg, J+1
[13] = 10^3 cells, 0.01 mg/mouse (0.5 mg/kg), J+1
[14] = 10^3 cells, 0.1 mg/mouse (5 mg/kg), J+1
[15] = 10^4 cells, 0.1 mg/mouse (0.5 mg/kg) [sic], J+1
[16] = 10^4 cells, 0.1 mg/mouse (5 mg/kg), J+1

Question: Which ILS % (L 1210 leukemia; [6]) does the source give for `Cc1c2ccncc2c(C)c2c1[nH]c1ccncc12` [Example 1, 5,11-dimethyl dipyrido [4,3-b][3,4-f] indole] here?
Answer: 3%

Question: And the “Number of cells found” value (L 1210 leukemia; [6])?
Answer: 800

Question: And the “Number of cells killed” value (L 1210 leukemia; [6])?
Answer: 20%

Question: What about the Surviving mice (L 1210 leukemia; [6]) of the same molecule?
Answer: 1/10

Question: What about the ILS % (L 1210 leukemia; [7]) of the same molecule?
Answer: 14,78%

Question: And the “Number of cells found” value (L 1210 leukemia; [7])?
Answer: 6,000

Question: And the “Number of cells killed” value (L 1210 leukemia; [7])?
Answer: 40%

Question: What about the ILS % (L 1210 leukemia; [8]) of the same molecule?
Answer: 15,73%

Question: And the “Number of cells found” value (L 1210 leukemia; [8])?
Answer: 40,000

Question: And the “Number of cells killed” value (L 1210 leukemia; [8])?
Answer: 60%

Question: What about the Surviving mice (L 1210 leukemia; [8]) of the same molecule?
Answer: 0

Question: What about the ILS % (L 1210 leukemia; experiment no 1, 10^6 cells, 1 mg/mouse (50 mg/kg), IP, J+2) of the same molecule?
Answer: 34,32%

Question: What about the “Number of cells found” value (L 1210 leukemia; [9]) of the same molecule?
Answer: 10^5

Question: And the “Number of cells killed” value (L 1210 leukemia; [9])?
Answer: 90%

Question: What about the Surviving mice (L 1210 leukemia; [9]) of the same molecule?
Answer: 0

Question: And the ILS % (L 1210 leukemia; [10])?
Answer: 11,8%

Question: What about the “Number of cells found” value (L 1210 leukemia; [10]) of the same molecule?
Answer: 5000

Question: What about the “Number of cells killed” value (L 1210 leukemia; [10]) of the same molecule?
Answer: 50%

Question: And the ILS % (L 1210 leukemia; [11])?
Answer: 38,1%

Question: And the “Number of cells found” value (L 1210 leukemia; [11])?
Answer: 2000

Question: What about the “Number of cells killed” value (L 1210 leukemia; [11]) of the same molecule?
Answer: 98%

Question: And the ILS % (L 1210 leukemia; experiment no 2, 10^6 cells, 1 mg/mouse (50 mg/kg), J+1)?
Answer: 47,3%

Question: And the “Number of cells found” value (L 1210 leukemia; [12])?
Answer: 8000

Question: And the “Number of cells killed” value (L 1210 leukemia; [12])?
Answer: 99%

Question: What about the “ILS % (difference with the controls)” value (L 1210 leukemia; experiment no 3, 0,1 and 0,05 mg/mouse, 10^4 and 10^3 cells) of the same molecule?
Answer: no significant difference

Question: And the “animals presenting a tumour” value ([1]; JO+5 hours)?
Answer: 50%

Question: What about the animals survived ([1]; JO+5 hours) of the same molecule?
Answer: 75%

Question: What about the mice with leukemia ([1]; JO+5 hours) of the same molecule?
Answer: 65%

Question: What about the tumours regressed ([1]; JO+5 hours) of the same molecule?
Answer: 30%

Question: And the mortality ([2]; mouse, ip, 20 mg/kg)?
Answer: 16.7%

Question: And the mortality ([2]; mouse, ip, 40 mg/kg)?
Answer: 12.5%

Question: And the mortality ([2]; mouse, ip, 80 mg/kg)?
Answer: 83.3%

Question: And the “Activity (ratio of the LD50 of HUM to the LD50 of the product tested)” value [3]?
Answer: 3

Question: And the LD50 ([4]; ip)?
Answer: 100 mg/kg

Question: What about the “LD 100” value (C3H/He mice) of the same molecule?
Answer: 200 mg/kg

Question: And the LD50 ([5]; ip)?
Answer: 150 mg/kg

Question: What about the “LD 100” value (ICFW mice) of the same molecule?
Answer: 200 mg/kg

Question: Which ILS % (L 1210 leukemia; [13]) does the source give for `CCN(CC)CCCNc1nccc2c(C)c3[nH]c4ccncc4c3cc12` [Example 7, 1-(γ-diethylaminopropyl)amino-5-methyl-dipyrido-[4,3-b][3,4-f] indole] here?
Answer: 17.4%

Question: What about the “Number of cells found” value (L 1210 leukemia; [13]) of the same molecule?
Answer: 80

Question: What about the “Number of cells killed” value (L 1210 leukemia; [13]) of the same molecule?
Answer: 92%

Question: What about the ILS % (L 1210 leukemia; [14]) of the same molecule?
Answer: 23.2%

Question: And the “Number of cells found” value (L 1210 leukemia; [14])?
Answer: 40

Question: What about the “Number of cells killed” value (L 1210 leukemia; [14]) of the same molecule?
Answer: 96%

Question: And the Surviving mice (L 1210 leukemia; [14])?
Answer: 5/10

Question: What about the ILS % (L 1210 leukemia; 10^4 cells, 0.1 mg/mouse (0.5 mg/kg) [sic], IP, J+1) of the same molecule?
Answer: 33.3%

Question: And the “Number of cells found” value (L 1210 leukemia; [15])?
Answer: 60

Question: What about the “Number of cells killed” value (L 1210 leukemia; [15]) of the same molecule?
Answer: 99.94%

Question: And the Surviving mice (L 1210 leukemia; [15])?
Answer: 1/10

Question: And the ILS % (L 1210 leukemia; 10^4 cells, 0.1 mg/mouse (5 mg/kg), IP, J+1)?
Answer: 11.5%

Question: And the “Number of cells found” value (L 1210 leukemia; [16])?
Answer: 10^3

Question: And the “Number of cells killed” value (L 1210 leukemia; [16])?
Answer: 90%

Question: And the animals survived ([1]; J+1)?
Answer: 90%

Question: What about the mice presenting tumours ([1]; J+1) of the same molecule?
Answer: 70%

Question: And the mice with leukemia ([1]; J+1)?
Answer: 0%

Question: What about the tumours regressed ([1]; J+1) of the same molecule?
Answer: 90%

Question: What about the “animals presenting a tumour” value ([1]; JO+5 hours) of the same molecule?
Answer: 5%

Question: What about the animals survived ([1]; JO+5 hours) of the same molecule?
Answer: 100%

Question: And the mice with leukemia ([1]; JO+5 hours)?
Answer: 40%

Question: And the tumours regressed ([1]; JO+5 hours)?
Answer: 100%

Question: What about the mortality ([2]; 0.3 mg/mouse (15 mg/kg), IP, read-out: dead mice (converted)) of the same molecule?
Answer: 0%

Question: What about the mortality ([2]; 0.5 mg/mouse (25 mg/kg), IP, read-out: dead mice (converted)) of the same molecule?
Answer: 0%

Question: What about the mortality ([2]; 0.6 mg/mouse (30 mg/kg), IP, read-out: dead mice (converted)) of the same molecule?
Answer: 50%

Question: What about the mortality ([2]; 1 mg/mouse (50 mg/kg), IP, read-out: dead mice (converted)) of the same molecule?
Answer: 33.3%

Question: What about the LD50 ([2]; mouse, adult F1 mice, IP) of the same molecule?
Answer: 30 mg/kg

Question: What about the “Activity (ratio of the LD50 of HUM to the LD50 of the product tested)” value [3] of the same molecule?
Answer: 20

Question: And the LD50 ([4]; C3H, IP)?
Answer: 20 mg/kg

Question: And the “LD 100” value (C3H/He mice)?
Answer: 35 mg/kg

Question: And the LD50 ([5]; ICFW, IP)?
Answer: 15 mg/kg

Question: What about the “LD 100” value (ICFW mice) of the same molecule?
Answer: 25 mg/kg
